Data from patent US4109008A, “Hydrazine derivatives useful as anti-hypertensives” (Hexachimie, priority 1976, dated 1978).

System: male rats exhibiting a spontaneous genetically transmissible hypertension
Test: Systolic arterial pressure and rate of heartbeat in spontaneously hypertensive rats after intraperitoneal administration
Assay type: in vivo
Conditions: Rattus norvegicus, ip, 0.5 h, 40 mg/kg given intraperitoneally, T + 30 mins, read-out: percentage variation and mean deviation of the systolic arterial pressure, T + 30 mins
Description: The arterial pressure is measured by a "Narco Bio System" sphygmomanometer. A sleeve is placed over the base of the tail and a detector records the pulse downstream from the sleeve. The sleeve is then inflated until the pulse is stopped, thus indicating the systolic pressure. The rate of heartbeat is also recorded. The products to be studied are converted to a suspension by means of "Tween 80" and administered intraperitoneally in a volume of 1 cm^3 per 100 grams of body weight. The measurements are repeated at regular intervals.

| SMILES | change in vivo at 40 mg/kg |
| --- | --- |
| Cn1c(=O)n(C)c2cc(C=NNC3=NCCN3)ccc21 [Example 12, N-(1,3-Dimethyl-2-Oxo-5-Benzimidazolylidene)-N'-Imidazolino-Hydrazine] | -39 ± 7.4% |
| C#CCOc1ccccc1C=NNC(=N)N [Example 1, N-[o-(Prop-2-Y-noxy)-Benzylidene]-N'-Amidino-Hydrazine] | -52 ± 3.4% |
